A word on the EC50: it is the concentration that produces a half-maximal response.

This test has as its target CFTR (Homo sapiens, UniProt P13569). Nature of the test: Membrane Potential Dye, Enteroid Assay A. It counts as cell-based. Particulars: for EC50: read-out: Ent. A EC50. The method, then: Base medium (ADF+++) consisted of Advanced […], 2 mM Glutamax, 10 mM HEPES, 1 μg/mL penicillin/streptomycin.
Intestinal enteroid maintenance medium (IEMMN) consisted of ADF+++, 1× B27 supplement, 1× N2 supplement, 1.25 mM N-acetyl cysteine, 10 mM Nicotinamide, 50 ng/mL hEGF, 10 nM Gastrin, 1 μg/mL hR-spondin-1, 100 ng/mL hNoggin, TGF-b type 1 inhibitor A-83-01, 100 μg/mL Primocin, 10 μM P38 MAPK inhibitor SB202190.
Bath 1 Buffer consisted of 1 mM MgCl2, 160 mM NaCl, 4.5 mM KCl, 10 mM HEPES, 10 mM Glucose, 2 mM CaCl2).
Chloride Free Buffer consisted of 1 mM Magnesium Gluconate, 2 mM Calcium Gluconate, 4.5 mM Potassium Gluconate, 160 mM Sodium Gluconate, 10 mM HEPES, 10 mM Glucose.
Bath 1 Dye Solution consisted of Bath 1 Buffer, 0.04% Pluronic F127, 20 μM Methyl Oxonol, 30 μM CaCCinh-A01, 30 μM Chicago Sky Blue.
Chloride Free Dye Solution consisted of Chloride Free Buffer, 0.04% Pluronic F127, 20 μM Methyl Oxonol, 30 μM CaCCinh-A01, 30 μM Chicago Sky Blue.
Chloride Free Dye Stimulation Solution consisted of Chloride Free Dye Solution, 10 μM forskolin, 100 μM IBMX, and 300 nM Compound III.
Human intestinal epithelial enteroid cells were obtained from the Hubrecht Institute for Developmental Biology and Stem Cell Research, Utrecht, The Netherlands and expanded in T-Flasks as previously described (Dekkers J F, Wiegerinck C L, de Jonge H R, Bronsveld I, Janssens H M, de Winter-de Groot K M, Brandsma A M, de Jong N W M, Bijvelds M J C, Scholte B J, Nieuwenhuis E E S, van den Brink S, Clevers H, van der Ent C K, Middendorp S and M Beekman J M. A functional CFTR assay using primary cystic fibrosis intestinal organoids. Nat Med. 2013 July; 19(7):939-45.).
3. Enteroid Cell Harvesting and Seeding
Cells were recovered in cell recovery solution, collected by centrifugation at 650 rpm for 5 min at 4° C., resuspended in TrypLE and incubated for 5 min at 37° C. Cells were then collected by centrifugation at 650 rpm for 5 min at 4° C. and resuspended in IEMM containing 10 μM ROCK inhibitor (RI). The cell suspension was passed through a 40 μm cell strainer and resuspended at 1×10^6 cells/mL in IEMM containing 10 μM RI. Cells were seeded at 5000 cells/well into multi-well plates and incubated for overnight at 37° C., 95% humidity and 5% CO2 prior to assay.
4. Membrane Potential Dye, Enteroid Assay A
Enteroid cells were incubated with test compound in IEMM for 18-24 hours at 37° C., 95% humidity and 5% CO2. […] Briefly, cells were washed 5 times in Bath 1 Buffer. Bath 1 Dye Solution was added, and the cells were incubated for 25 min at room temperature. Following dye incubation, cells were washed 3 times in Chloride Free Dye Solution. Chloride transport was initiated by addition of Chloride Free Dye Stimulation Solution and the fluorescence signal was read for 15 min. […] Chloride transport was then expressed as a percentage of the chloride transport following treatment with 3 μM N-[(6-amino-2-pyridyl)sulfonyl]-6-(3-fluoro-5-isobutoxy-phenyl)-2-[(4S)-2,2,4-trimethylpyrrolidin-1-yl]pyridine-3-carboxamide, 3 μM (R)-1-(2,2-difluorobenzo[d][1,3]dioxol-5-yl)-N-(1-(2,3-dihydroxypropyl)-6-fluoro-2-(1-hydroxy-2-methylpropan-2-yl)-1H-indol-5-yl)cyclopropanecarboxamide and 300 nM acute N-[2,4-bis(1,1-dimethylethyl)-5-hydroxyphenyl]-1,4-dihydro-4-oxoquinoline-3-carboxamide triple combination control (% Activity).

Sequence of CFTR (P13569 with tags, fused parts or gaps DEL508-508): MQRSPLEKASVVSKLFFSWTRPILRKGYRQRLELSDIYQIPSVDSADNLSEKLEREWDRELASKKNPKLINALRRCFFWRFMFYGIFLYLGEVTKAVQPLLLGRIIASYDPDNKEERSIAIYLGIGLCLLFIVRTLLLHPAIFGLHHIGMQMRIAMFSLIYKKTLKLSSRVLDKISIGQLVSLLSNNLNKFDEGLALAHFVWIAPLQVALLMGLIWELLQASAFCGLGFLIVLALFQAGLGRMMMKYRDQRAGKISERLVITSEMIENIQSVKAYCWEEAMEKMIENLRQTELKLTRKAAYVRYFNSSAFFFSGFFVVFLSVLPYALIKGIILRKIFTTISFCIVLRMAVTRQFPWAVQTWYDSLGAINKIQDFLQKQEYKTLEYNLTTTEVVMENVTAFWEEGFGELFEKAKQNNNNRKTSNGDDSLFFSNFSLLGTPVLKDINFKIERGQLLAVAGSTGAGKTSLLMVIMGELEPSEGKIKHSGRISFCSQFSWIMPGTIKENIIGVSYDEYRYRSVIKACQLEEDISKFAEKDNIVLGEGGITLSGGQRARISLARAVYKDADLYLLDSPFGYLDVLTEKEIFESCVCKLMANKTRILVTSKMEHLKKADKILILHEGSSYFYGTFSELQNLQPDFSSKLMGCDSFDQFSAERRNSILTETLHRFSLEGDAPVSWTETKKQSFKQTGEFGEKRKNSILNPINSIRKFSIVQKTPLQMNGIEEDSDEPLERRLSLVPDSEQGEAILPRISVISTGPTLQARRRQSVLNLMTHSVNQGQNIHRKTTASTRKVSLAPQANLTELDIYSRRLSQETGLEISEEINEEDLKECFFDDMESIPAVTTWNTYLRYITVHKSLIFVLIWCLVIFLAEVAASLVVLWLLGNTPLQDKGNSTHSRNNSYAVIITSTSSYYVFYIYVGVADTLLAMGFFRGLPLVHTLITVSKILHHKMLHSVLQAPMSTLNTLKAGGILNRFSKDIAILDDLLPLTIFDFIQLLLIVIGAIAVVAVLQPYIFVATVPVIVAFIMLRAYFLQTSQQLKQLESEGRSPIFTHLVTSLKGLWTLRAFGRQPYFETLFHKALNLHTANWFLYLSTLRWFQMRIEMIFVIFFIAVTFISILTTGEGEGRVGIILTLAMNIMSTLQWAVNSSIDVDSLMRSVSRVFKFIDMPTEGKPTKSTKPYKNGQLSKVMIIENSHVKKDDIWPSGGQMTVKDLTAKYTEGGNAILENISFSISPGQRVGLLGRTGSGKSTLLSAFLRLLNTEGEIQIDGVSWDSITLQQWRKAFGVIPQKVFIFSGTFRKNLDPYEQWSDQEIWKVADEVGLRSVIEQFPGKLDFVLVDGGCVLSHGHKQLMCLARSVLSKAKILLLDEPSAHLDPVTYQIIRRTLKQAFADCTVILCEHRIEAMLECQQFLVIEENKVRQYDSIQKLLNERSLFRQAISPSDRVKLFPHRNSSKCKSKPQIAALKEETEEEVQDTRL

Take `Cc1cccc(C)c1-c1cc2nc(n1)NS(=O)(=O)c1cccc(c1)C(=O)N(C1CC3(CCN(C)CC3)C1)C(CC1(C(F)(F)F)CC1)CO2` (single isomer, unassigned) [Compound 136, 6-(2,6-Dimethylphenyl)-12-(7-methyl-7-azaspiro[3.5]nonan-2-yl)-2,2-dioxo-11-[[1-(trifluoromethyl)cyclopropyl]methyl]-9-oxa-2λ^6-thia-3,5,12,19-tetrazatricyclo[12.3.1.14,8]nonadeca-1(18),4(19),5,7,14,16-hexaen-13-one]: the “Ent. A Max Activity (%)” value is on record as “+++ (+++ is >60%)” and the EC50 is less than 1000 nM.
On the same counts, the results for `Cc1cccc(C)c1-c1cc2nc(n1)NS(=O)(=O)c1cccc(c1)C(=O)N(C1CC3(CCN(C(C)C)CC3)C1)[C@H](CC(C)C)CO2` [Compound 17, (11R)-6-(2,6-Dimethylphenyl)-11-isobutyl-12-(7-isopropyl-7-azaspiro[3.5]nonan-2-yl)-2,2-dioxo-9-oxa-2λ^6-thia-3,5,12,19-tetrazatricyclo[12.3.1.14,8]nonadeca-1(18),4(19),5,7,14,16-hexaen-13-one] are “+++ (+++ is >60%)” and less than 1000 nM.
Regarding `Cc1cccc(C)c1-c1cc2nc(n1)NS(=O)(=O)c1cccc(c1)C(=O)N([C@H]1C[C@]3(CCCN(C)C3)C1)[C@H](CC(C)C)CO2` [Compound 332], the “Ent. A Max Activity (%)” value is on record as “+++ (+++ is >60%)” and the EC50 was less than 1000 nM.
Taken in the same sequence, the figures for `Cc1cccc(C)c1-c1cc2nc(n1)NS(=O)(=O)c1cccc(c1)C(=O)N(C1CC(C(=O)O)C1)[C@H](CC(C)C)CO2` (stereo partly drawn) [Compound 35, 3-[(11R)-6-(2,6-dimethylphenyl)-11-isobutyl-2,2,13-trioxo-9-oxa-2λ^6-thia-3,5,12,19-tetrazatricyclo[12.3.1.14,8]nonadeca-1(18),4(19),5,7,14,16-hexaen-12-yl]cyclobutanecarboxylic acid] were “+++ (+++ is >60%)” and 3000 to 30000 nM.
Regarding `COC(=O)N1CCC2(CC1)CC(N1C(=O)c3cccc(c3)S(=O)(=O)Nc3nc(cc(C4CCCCC4(C)C)n3)OC[C@H]1CC(C)C)C2` (stereo partly drawn) [Compound 396], the “Ent. A Max Activity (%)” value is recorded as “++ (++ is 30-60%)” and the EC50 was less than 1000 nM.
Regarding `Cc1cccc(C)c1-c1cc2nc(n1)NS(=O)(=O)c1cccc(c1)C(=O)N(C1CCOCC1)CCO2` [Compound 439], the “Ent. A Max Activity (%)” value is on record as “+++ (+++ is >60%)” and the EC50 lay in the range of 3000 to 30000 nM.
On the same counts, the results for `Cc1cccc(C)c1-c1cc2nc(n1)NS(=O)(=O)c1cccc(c1)C(=O)N([C@H]1CC3(C[C@H](N(C)C)C3)C1)[C@H](CC(C)C)CO2` (stereo partly drawn) [Compound 314] are “+++ (+++ is >60%)” and less than 1000 nM.
In the case of `CNC(=O)[C@H]1CC2(C1)C[C@H](N1C(=O)c3cccc(c3)S(=O)(=O)Nc3nc(cc(-c4c(C)cccc4C)n3)OC[C@H]1CC(C)C)C2` (stereo in doubt) [Compound 347], the “Ent. A Max Activity (%)” value is “+++ (+++ is >60%)” and the EC50 is less than 1000 nM.
For `Cc1cccc(C)c1-c1cc2nc(n1)NS(=O)(=O)c1cccc(c1)C(=O)N(C1CCCC1)[C@H](CC(C)C)CO2` [Compound 30, (11R)-12-Cyclopentyl-6-(2,6-dimethylphenyl)-11-isobutyl-2,2-dioxo-9-oxa-2λ^6-thia-3,5,12,19-tetrazatricyclo[12.3.1.14,8]nonadeca-1(18),4(19),5,7,14,16-hexaen-13-one], the “Ent. A Max Activity (%)” value is given as “+++ (+++ is >60%)” and the EC50 is less than 1000 nM.
On the same counts, the results for `Cc1cccc(C)c1-c1cc2nc(n1)NS(=O)(=O)c1cccc(c1)C(=O)N([C@H]1C[C@]3(CCN(C(C)C)C3)C1)[C@H](CC(C)C)CO2` (single isomer, unassigned) [Compound 33] are “+++ (+++ is >60%)” and less than 1000 nM.
Take `Cc1cccc(C)c1-c1cc2nc(n1)NS(=O)(=O)c1cccc(c1)C(=O)N([C@H]1CC3(C[C@H](C(=O)N(C)C)C3)C1)[C@H](CC(C)C)CO2` (stereo partly drawn) [Compound 342]: the “Ent. A Max Activity (%)” value is recorded as “+++ (+++ is >60%)” and the EC50 was less than 1000 nM.
For `Cc1cccc(C)c1-c1cc2nc(n1)NS(=O)(=O)c1cccc(c1)C(=O)N([C@H]1C[C@@H](O)C1)[C@H](CC(C)C)CO2` (single isomer, unassigned) [Compound 43], the “Ent. A Max Activity (%)” value is “+++ (+++ is >60%)” and the EC50 was 1000 to 3000 nM.
For the compound `CC(=O)N1C[C@H]2C[C@H](N3C(=O)c4cccc(c4)S(=O)(=O)Nc4nc(cc(-c5c(C)cccc5C)n4)OC[C@H]3CC(C)C)C[C@H]2C1` [Compound 336], the “Ent. A Max Activity (%)” value was “++ (++ is 30-60%)” and the EC50 is less than 1000 nM.
Taken in the same sequence, the figures for `COC(=O)N1CCC2(CC1)CC(N1C[C@@H](C)Oc3cc(-c4c(C)cccc4C)nc(n3)NS(=O)(=O)c3cccc(c3)C1=O)C2` [Compound 312] were “+++ (+++ is >60%)” and less than 1000 nM.
Consider `Cc1cccc(C)c1-c1cc2nc(n1)NS(=O)(=O)c1cccc(c1)C(=O)N(C1CCC(C)(C)C1)[C@H](CC(C)C)CO2` (stereo partly drawn) [Compound 348], for which the “Ent. A Max Activity (%)” value is “+++ (+++ is >60%)” and the EC50 is less than 1000 nM.
`COC(=O)N1CCC2(CC(N3C(=O)c4cccc(c4)S(=O)(=O)Nc4nc(cc(-c5c(C)cccc5C)n4)OC[C@H]3CC(C)C)C2)C1` (stereo partly drawn) [Compound 325]: the “Ent. A Max Activity (%)” value was “+++ (+++ is >60%)” and the EC50 was less than 1000 nM.
On to `CC(C)C[C@@H]1COc2cc(-c3ccccc3-c3ccccc3)nc(n2)NS(=O)(=O)c2cccc(c2)C(=O)N1C1CC2(CCN(C)CC2)C1` [Compound 471], for which the “Ent. A Max Activity (%)” value is reported as “+++ (+++ is >60%)” and the EC50 was less than 1000 nM.
Consider `Cc1cccc(C)c1-c1cc2nc(n1)NS(=O)(=O)c1cccc(c1)C(=O)N([C@H]1C[C@]3(CCN(C)C3)C1)[C@H](CC(C)C)CO2` (stereo in doubt) [Compound 333], for which the “Ent. A Max Activity (%)” value is given as “+++ (+++ is >60%)” and the EC50 was less than 1000 nM.
With `Cc1cccc(C)c1-c1cc2nc(n1)NS(=O)(=O)c1cccc(c1)C(=O)N([C@H]1C[C@@H](CO)C1)[C@H](CC(C)C)CO2` (single isomer, unassigned) [Compound 40], the “Ent. A Max Activity (%)” value is recorded as “+++ (+++ is >60%)” and the EC50 was in the range of 1000 to 3000 nM.
For the compound `COC(=O)N1CCCC2(CC(N3C(=O)c4cccc(c4)S(=O)(=O)Nc4nc(cc(-c5c(C)cccc5C)n4)OC[C@H]3CC(C)C)C2)C1` (stereo partly drawn) [Compound 327], the “Ent. A Max Activity (%)” value was “+++ (+++ is >60%)” and the EC50 is less than 1000 nM.
Regarding `CC(C)C[C@@H]1COc2cc(-c3ccccc3C(C)C)nc(n2)NS(=O)(=O)c2cccc(c2)C(=O)N1C1CC2(CCN(C)CC2)C1` [Compound 11, (11R)-11-Isobutyl-6-(2-isopropylphenyl)-12-(7-methyl-7-azaspiro[3.5]nonan-2-yl)-2,2-dioxo-9-oxa-2 λ6-thia-3,5,12,19-tetrazatricyclo[12.3.1.14,8]nonadeca-1(18),4,6,8(19),14,16-hexaen-13-one], the “Ent. A Max Activity (%)” value is “+++ (+++ is >60%)” and the EC50 is less than 1000 nM.
